# From US20260263403A1, “COMPOSITIONS AND METHODS FOR TREATING TRAUMATIC BRAIN INJURY” (THE CHILDREN'S HOSPITAL OF PHILADELPHIA, priority 2023, published 2026)
# Key:
# [1] = test system: acetate levels in the brain; conditions: dietary supplement, within one hour of administration; cited from earlier work
# [2] = solubility/precipitation of BCAA drink during study preparation; format: physicochemical; conditions: 60 g/day dose divided twice daily, initial study preparation
# Source text: The three BCAAs, valine, isoleucine, and leucine, were combined together in a 1:1:1 ratio for the four treatment doses. […] Given the unknown optimal dose of BCAA supplementation for concussion, doses of 15 g, 30 g, 45 g, and 60 g divided twice daily were chosen as initial treatment doses.
SMILES,increase of acetate levels in the brain [1],precipitation at the highest dose [2]
"CC(=O)OCC(COC(C)=O)OC(C)=O [GTA, glyceryl triacetate]",over 15 fold,
CC(C)C[C@H](N)C(=O)O [leucine],,precipitating at a lower concentration than expected
